Source: paper PMC3285636, “Identification by Virtual Screening and In Vitro Testing of Human DOPA Decarboxylase Inhibitors” (PLoS ONE, 2012)
Entries after “also recorded” stand apart in the source; their conditions may differ. Read-outs that look alike come from different tables or passages of the source. Marks after values point to notes of the source that are not given here.

Experiments:
human DDC [1] = target: T1, human DDC (Homo sapiens, UniProt P20711); test: Assay of the inhibitory activity: spectrophotometric measurement of dopamine production by DDC; format: biochemical; settings: for IC50: 0.1 mM L-Dopa, pH 7.4, 25°C, 9 concentrations in duplicate, read-out: IC50; for BE (binding efficiency): binding energy per unit of mass, from Ki and molecular weight in kDa; for Inhibition profile: type of inhibition from Lineweaver–Burk plots; for Ki′: mixed or noncompetitive inhibition
T1 construct: made in house
T1 sequence (P20711 1-480): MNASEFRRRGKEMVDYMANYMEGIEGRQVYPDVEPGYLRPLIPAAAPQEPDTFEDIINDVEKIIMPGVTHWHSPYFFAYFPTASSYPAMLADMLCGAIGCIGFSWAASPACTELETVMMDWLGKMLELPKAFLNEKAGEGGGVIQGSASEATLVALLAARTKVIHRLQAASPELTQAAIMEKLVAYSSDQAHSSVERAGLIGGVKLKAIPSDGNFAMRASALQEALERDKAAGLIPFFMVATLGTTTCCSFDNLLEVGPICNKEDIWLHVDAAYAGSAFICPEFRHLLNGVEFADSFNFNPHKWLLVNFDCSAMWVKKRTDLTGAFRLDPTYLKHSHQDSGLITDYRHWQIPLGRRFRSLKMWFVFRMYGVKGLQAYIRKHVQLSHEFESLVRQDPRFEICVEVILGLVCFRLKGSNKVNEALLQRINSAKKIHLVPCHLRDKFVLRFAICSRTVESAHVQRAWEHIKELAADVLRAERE
Experimental: DDC activity was determined by measuring the production of dopamine with a spectrophotometric assay outlined by Sherald et al. and modified by Charteris and John. The reaction was carried out in 0.1 M potassium phosphate buffer pH 7.4 at 25°C for 1 min and stopped by inactivation of the enzyme at 100°C for 90 sec. The inhibitory assay was performed by measuring the decarboxylase activity of DDC with 50 nM enzyme, 0.1 mM L-Dopa, and 10 µM PLP in the presence and in the absence of a fixed amount of each compound. Various amounts of dimethyl sulphoxyde (DMSO) were necessary to solubilize the compounds in 100 mM potassium phosphate buffer, pH 7.4. […] Compounds were evaluated at 9 concentrations, and each in duplicate. IC50 values were derived by nolinear regression analysis. The related inhibition type of the compounds on human DDC was identified from Lineweaver–Burk plots, and Ki and/or Ki′ values for the inhibitors tested were calculated by the software Origin 7.0.

human DDC [2] = target: T1, human DDC; test: Enzyme-ligand equilibrium dissociation constant from visible CD signal changes of DDC; format: binding; settings: change of 420 nm or 335 nm CD band, 100 mM potassium phosphate pH 7.4
Experimental: The equilibrium dissociation constant for each tested compound from DDC was determined by monitoring the decrease in the 420 nm CD signal of DDC (7 µM) in the presence of various ligand concentrations in 100 mM potassium phosphate buffer, pH 7.4. In any case, the maximun DMSO concentration in the mixture was kept lower than 1% (v/v). The KD values were obtained from the fitting of the data to the equation [drawing 3] where [E]t and [L]t represent the total concentrations of DDC dimer and ligand, respectively, Y refers to the visible CD signal change at 420 nm at the ligand concentration [L], and Ymax refers to the CD signal when all enzyme molecules are complexed with the ligand. CD measurements were performed with a Jasco J-710 spectropolarimeter using quartz cuvettes with 1 cm path length.

[3] = 50 nM enzyme, L-Dopa, 10 µM PLP, 0.1 M potassium phosphate pH 7.4, 25°C, from Lineweaver–Burk plots, read-out: Ki
[4] = at a concentration in which solubility of the compound was maximum
[5] = 0.1 M potassium phosphate pH 7.4, 25°C, from Lineweaver–Burk plots
[6] = competitive inhibition, Table 4, third screening, read-out: Ki
[7] = Ki, competitive inhibition, Table 4, third screening

Row | Structure (SMILES) | IC50 (human DDC [1]; 50 nM enzyme, 10 µM PLP) [µM] | Ki (human DDC [1]; [3]) [µM] | BE (binding efficiency) (human DDC [1]) | Inhibition profile (human DDC [1]) | Kd (human DDC [2]) [µM] | also measured
1 | O=C(O)c1cccc(NS(=O)(=O)c2ccc3nnn(O)c3c2)c1 [Compound 1] | 570 ± 66 | 106 ± 7 | 11.9 | competitive inhibition | 240 ± 68 | Inhibition of DDC activity (human DDC [1]; [4]): ≥ 70%
2 | O=S(=O)(c1ccc2nnn(O)c2c1)N1CCCCC1 [Compound 2] | 1500 ± 220 | 390 ± 30 | 12.1 | competitive inhibition | 516 ± 126 | Inhibition of DDC activity (human DDC [1]; [4]): ≥ 70%
3 | Oc1ccc(/C=N/n2c(S)nnc2-c2ccc(Cl)cc2)cc1O [Compound 21] | 6.3 ± 0.9 | 2.3 ± 0.4 | 16.3 | competitive inhibitors | 2.5 ± 0.7 | –
4 | Oc1ccc(/C=N/n2c(S)nnc2-c2ccc(F)cc2)cc1O [Compound 34] | 11 ± 0.8 | 10.4 ± 3.3 | 15.8 | competitive inhibitors | 7.1 ± 0.9 | –
5 | Oc1ccc(C=Nn2c(S)nnc2-c2ccccc2)c(O)c1 [Compound 27] | – | 24.8 ± 1.2 | – | mixed mode | – | Ki′ (human DDC [1]; [5]): 43.1 ± 1.9 µM
6 | O=C(Nc1ccccc1)c1ccccc1NS(=O)(=O)c1ccc2[nH]c(=O)[nH]c2c1 [Compound 17] | 16.8 ± 1.7 | 4.4 ± 1.4 | 13.1 | competitive inhibitors | 17.5 ± 5.1 | increase of affinity (human DDC [1]; compared with compound 5): about 13 fold
7 | Nc1c(S(=O)(=O)c2ccccc2)c2nc3ccccc3nc2n1/N=C/c1ccc(O)c(O)c1 [Compound 12] | – | – | – | noncompetitive inhibition | – | Inhibition of DDC activity (human DDC [1]; [4]): ~55%; Ki′ (human DDC [1]; [5]): 19.4±1.4^b µM
8 | Oc1cccc(/C=N/n2c(S)nnc2-c2ccc(Cl)cc2)c1 [Compound 24] | 77.1 ± 2.4 | 120 ± 14 | 11.9 | competitive inhibitors | – | –
9 | Cc1cccc(NC(=O)COC(=O)c2[nH]c(=O)[nH]c(=O)c2N)c1C [Compound 8] | – | – | – | – | – | Inhibition of DDC activity (human DDC [1]; [4]): do not inhibit DDC activity
10 | Oc1cccc(/C=N/n2c(S)nnc2-c2ccc(Cl)cc2Cl)c1 [Compound 20] | – | 36.8 ± 4.2 | 12.1 | competitive inhibitors | 28.2 ± 3.2 | –
11 | Oc1ccc(C=Nn2c(S)nnc2-c2ccc(Cl)cc2)c(O)c1 [Compound 26] | – | – | 12.1 | noncompetitive inhibitors; also recorded: Nonconmpetitive | – | Ki′ (human DDC [1]; [5]): 65.2±−4.1^b µM
12 | Cc1nnc(S)n1/N=C/c1ccc(O)c(O)c1 [Compound 39] | 27.5 ± 3.3 | – | 19,9 | – | 9.1 ± 0.3 | Ki (human DDC [1]; [6]): 10.8 ± 0.8 µM
13 | Oc1ccc(/C=N/n2c(S)nnc2COc2ccccc2)cc1O [Compound 46] | 3.5 ± 0.3 | – | 17,4 | – | – | Ki (human DDC [1]; [6]): 1.1 ± 0.1 µM
14 | COc1ccccc1-c1nnc(S)n1/N=C/c1ccc(O)c(O)c1 [Compound 47] | > 200 | – | – | – | – | Inhibition of DDC activity (human DDC [1]; at 200 µM (the concentration of its maximum solubility)): does not inhibit DDC activity
15 | O=C(O)c1ccccc1NS(=O)(=O)c1ccc2[nH]c(=O)[nH]c2c1 [Compound 16] | – | 59.8 ± 0.3 | 12.7 | competitive inhibitors | – | –
16 | Oc1ccc(/C=N/n2c(S)nnc2-c2ccccc2)c(O)c1O [Compound 22] | 6.7 ± 0.9 | 15.1 ± 0.1 | – | mixed mode | – | Ki′ (human DDC [1]; [5]): 46.7 ± 0.5 µM

Row | Structure (SMILES) | IC50 (human DDC [1]; 50 nM enzyme, 10 µM PLP) [µM] | Ki (human DDC [1]; [3]) [µM] | BE (binding efficiency) (human DDC [1]) | Inhibition profile (human DDC [1]) | Kd (human DDC [2]) [µM] | also measured
17 | Oc1ccc(/C=N/n2c(S)nnc2-c2ccccc2Cl)cc1O [Compound 25] | 15.2 ± 1.3 | 3.7 ± 0.2 | 15.7 | competitive inhibitors | 2.4 ± 0.1 | –
18 | Oc1ccc(/C=N/n2c(S)nnc2-c2ccc(Cl)cc2Cl)cc1 [Compound 18] | – | 63.2 ± 3.1 | 11.5 | competitive inhibitors | – | –
19 | Cc1ccccc1-c1nnc(S)n1/N=C/c1ccc(O)c(O)c1 [Compound 41] | 30.1 ± 2.1 | – | 15,4 | – | 6.1 ± 0.5 | Ki (human DDC [1]; [7]): 9.8 ± 0.5 µM
20 | Oc1ccc(/C=N/n2c(S)nnc2-c2ccco2)cc1O [Compound 40] | 3.5 ± 0.2 | – | 19,4 | – | – | Ki (human DDC [1]; [7]): 1.4 ± 0.1 µM
21 | Oc1ccccc1/C=N/n1c(S)nnc1-c1ccccc1Cl [Compound 29] | – | 44.4 ± 2.3 | – | mixed mode | – | Ki′ (human DDC [1]; [5]): 208 ± 3 µM
22 | COc1cccc(-c2nnc(S)n2/N=C/c2ccc(O)c(O)c2)c1 [Compound 45] | 6.2 ± 0.3 | – | 16,7 | – | 1.5 ± 0.3 | Ki (human DDC [1]; [7]): 2 ± 0.1 µM
23 | CCOc1cc(-c2ccc(O)c(O)c2)cc(=O)c2c(C)oc(C)c12 [Compound 6] | – | – | – | – | – | Inhibition of DDC activity (human DDC [1]; [4]): do not inhibit DDC activity
24 | Oc1ccccc1/C=N/n1c(S)nnc1-c1ccc(Cl)cc1Cl [Compound 19] | – | – | – | – | – | DDC inhibitory activity in words (human DDC [1]; structure-activity discussion): poorly active
25 | O=C1C(=Cc2ccc(O)c(O)c2)C(=O)c2ccccc21 [Compound 10] | 12.8 ± 0.4 | 6.03 ± 0.55 | – | mixed inhibition | – | Inhibition of DDC activity (human DDC [1]; [4]): ≥ 70%; Ki′ (human DDC [1]; [5]): 23.1 ± 1.1 µM
26 | COc1ccc(-c2nnc(S)n2/N=C/c2ccc(O)c(O)c2)cc1 [Compound 44] | 1.7 ± 0.2 | – | 18,4 | – | – | Ki (human DDC [1]; [7]): 0.5 ± 0.1 µM
27 | Oc1ccc(/C=N/n2c(S)nnc2-c2ccc(Cl)cc2Cl)c(O)c1 [Compound 35] | 29 ± 2 | – | – | noncompetitive inhibitors | – | Ki′ (human DDC [1]; [5]): 127±16^b µM
28 | CC(C)C(NC(=O)Cc1n[nH]c(=O)c2ccccc12)c1nc2ccccc2[nH]1 (stereo not drawn) [Compound 13] | – | – | – | – | – | Inhibition of DDC activity (human DDC [1]; [4]): do not inhibit DDC activity
29 | Oc1c(Br)cc(Br)cc1/C=N/n1c(S)nnc1-c1ccc(Cl)cc1Cl [Compound 32] | – | 4.5 ± 0.3 | – | mixed mode | – | Ki′ (human DDC [1]; [5]): 17 ± 0.2 µM
30 | O=C1Nc2ccc(S(=O)(=O)N3CCCCC3)c3cccc1c23 [Compound 15] | – | – | – | – | – | Inhibition of DDC activity (human DDC [1]; [4]): do not inhibit DDC activity
31 | Oc1ccccc1/C=N/n1c(S)nnc1-c1ccc(F)cc1 [Compound 33] | – | 16.5 ± 0.8 | – | mixed mode | – | Ki′ (human DDC [1]; [5]): 325 ± 39 µM
